# Legend:
# Assay type in all cases: physicochemical
# [1] = Stability of calcitriol in ethanol (HPLC assay against reference substance); conditions: 30 ppm in absolute ethanol, 0.02% BHT
# Source text: (§1) a) Stability of Calcitriol in Ethanol: 30 ppm solution of calcitriol in qs 100% of absolute ethanol in the presence of 0.02% BHT. HPLC assay technique against reference substance. At the initial time (T0), it is considered that the composition comprises 100% calcitriol. Calcitriol concentration measured as % relative to T0: […]
# [2] = Stability of calcitriol in Cetiol SN (HPLC assay against reference substance); conditions: for Calcitriol concentration measured as % relative to T0: 30 ppm in Cetiol SN, 0.4% BHT
# Source text: as §1, with “c)” for “a)”, “Cetiol SN (Cetearyl Isononanoate):” for “Ethanol:”, “Cetiol SN (cetearyl isononanoate)” for “of absolute ethanol”, “0.4%” for “0.02%”
# [3] = Stability of calcitriol in Miglyol 812 (HPLC assay against reference substance); conditions: for Calcitriol concentration measured as % relative to T0: 30 ppm in Miglyol 812, 0.4% BHT
# Source text: as §1, with “b)” for “a)”, “Miglyol 812 (Caprylic/-15 Capric Triglycerides)” for “Ethanol:”, “Miglyol 812” for “of absolute ethanol”, “0.4%” for “0.02%”
smiles,measurement,setting,value
C=C1/C(=C\C=C2/CCC[C@]3(C)[C@@H]([C@H](C)CCCC(C)(C)O)CC[C@@H]23)C[C@@H](O)C[C@@H]1O [calcitriol],Calcitriol concentration measured as % relative to T0,"[1]; +4° C., T1 week",97.7%
same,Calcitriol concentration measured as % relative to T0,"[1]; +4° C., T2 weeks",98.6%
same,Calcitriol concentration measured as % relative to T0,"[1]; +4° C., T3 weeks",98.1%
same,Calcitriol concentration measured as % relative to T0,"[1]; +4° C., T4 weeks",97.7%
same,Calcitriol concentration measured as % relative to T0,"[1]; +30° C., T2 weeks",93.4%
same,Calcitriol concentration measured as % relative to T0,"[1]; +30° C., T4 weeks",93.0%
same,Calcitriol concentration measured as % relative to T0,"[1]; −18° C., T1 week",100.9%
same,Calcitriol concentration measured as % relative to T0,"[1]; −18° C., T2 weeks",100.5%
same,Calcitriol concentration measured as % relative to T0,"[1]; −18° C., T3 weeks",99.5%
same,Calcitriol concentration measured as % relative to T0,"[1]; −18° C., T4 weeks",99.5%
same,Calcitriol concentration measured as % relative to T0,"[2]; +4° C., T2 weeks",98.6%
same,Calcitriol concentration measured as % relative to T0,"[2]; +4° C., T4 weeks",98.1%
same,Calcitriol concentration measured as % relative to T0,"[2]; +40° C., T2 weeks",99.0%
same,Calcitriol concentration measured as % relative to T0,"[2]; +40° C., T4 weeks",98.9%
same,Calcitriol concentration measured as % relative to T0,"[2]; RT, T2 weeks",98.7%
same,Calcitriol concentration measured as % relative to T0,"[2]; RT, T4 weeks",98.4%
same,Stability of calcitriol in Cetiol SN (in words),[2]; in Cetiol SN,good stability
same,Calcitriol concentration measured as % relative to T0,"[3]; +4° C., T2 weeks",98.3%
same,Calcitriol concentration measured as % relative to T0,"[3]; +4° C., T4 weeks",105.2%
same,Calcitriol concentration measured as % relative to T0,"[3]; +40° C., T2 weeks",91%
same,Calcitriol concentration measured as % relative to T0,"[3]; +40° C., T4 weeks",93.8%
same,Calcitriol concentration measured as % relative to T0,"[3]; RT, T2 weeks",95.1%
same,Calcitriol concentration measured as % relative to T0,"[3]; RT, T4 weeks",98.0%
same,Stability of calcitriol in Miglyol 812 (in words),[3]; in Miglyol 812,good stability

# Reference: patent publication US20050281850A1, “Cosmetic/dermatological inverse emulsions containing calcitriol and clobetasol 17-propionate” (GALDERMA S.A., priority 2004, published 2005)
